Drawing on US6482822B1, “N-(iminomethyl)amines derivatives, their preparation, their use as medicines and compositions containing them” (Societe de Conseils de Recherches et d'Applications …, priority 1998, dated 2002), this text covers melting point for one molecule.

Structures can show the parent of a compound that is named as a salt. A value given as a limit tells only on which side of the number the result lay.

With `NC(=Nc1ccc(CCCC(=O)Nc2ccc3[nH]c4ccccc4c3c2)cc1)c1cccs1` (as salt: hydrochloride) [Example 18, 4-(4-{[Amino(2-thienyl)methylidene]amino}phenyl)-N-(9H-carbazol-3-yl)butanamide Hydrochloride], the melting point is over 250 °C.
